Assay results from patent publication US20170145472A1, “METHOD OF DETECTING HELICASE ACTIVITY” (University of Macau, priority 2015, published 2017).

Key:
[1] = Photophysical measurement; format: physicochemical; details: for Quantum yield: reference [Ru(bpy)3][PF6]2 in degassed acetonitrile
Experimental: Emission spectra and lifetime measurements for complexes were performed on a PTI TimeMaster C720 Spectrometer (Nitrogen laser: pulse output 337 nm) fitted with a 380 nm filter. Error limits were estimated: λ (±1 nm); τ (±10%); φ (±10%). All solvents used for the lifetime measurements were degassed using three cycles of freeze-vac-thaw.
Luminescence quantum yields were determined using the method of Demas and Crosby [Ru(bpy)3][PF6]2 in degassed acetonitrile as a standard reference solution (Φr=0.062) and calculated according to the following equation:
Φs=Φr(Br/Bs)(ns/nr)^2(Ds/Dr) • where the subscripts s and r refer to sample and reference standard solution respectively, n is the refractive index of the solvents, D is the integrated intensity, and Φ is the luminescence quantum yield. The quantity B was calculated by B=1−10^−AL, where A is the absorbance at the excitation wavelength and L is the optical path length.

PS2.M G-quadruplex DNA = test: Luminescence response of Ir(III) complexes towards different forms of DNA; format: binding; details: complex 1 μM, DNA 5 μM; PS2.M G-quadruplex vs ds17 and CCR5-DEL
Source text: M G-quadruplex DNA (G4) over dsDNA (ds17) and ssDNA (CCRS-DEL), in particular IG4/IdsDNA refers to the ratio of the luminescent response of PS2. M G-quadruplex DNA over dsDNA (ds17); and IG4/IssDNA refers to the ratio of the luminescent response of PS2. M G-quadruplex DNA over ssDNA(CCR5-DEL).
M G-quadruplex DNA over dsDNA (ds17) and ssDNA (CCRS-DEL), in particular IG4/IdsDNA refers to the ratio of the luminescent response of PS2. M G-quadruplex DNA over dsDNA (ds17); and IG4/IssDNA refers to the ratio of the luminescent response of PS2. M G-quadruplex DNA over ssDNA(CCR5-DEL).
The G-quadruplex DNA-forming sequence (PS2. M) was annealed in Tris-HCl buffer (20 mM Tris, 100 mM KCl, pH 7.0) and were stored at −20° C. or less than −20° C. before use. Complex 1-17 (1 μM) was added to 5 μM of ssDNA, dsDNA or PS2. M G-quadruplex DNA in Tris-HCl buffer (20 mM Tris, pH 7.0).

helicase = biological target: T1, helicase (Hepatitis C virus genotype 1a, UniProt P27958); test: Luminescence response of complexes towards helicase alone; details: helicase alone, no DNA
T1 construct: upon the addition of 0.8 μM HCV NS3 helicase; purchased Prospec Inc. (Ness-Ziona, Israel)
Source text: M G-quadruplex DNA over helicase, IG4/Ihelicase refers to the ratio of the lunminscent response of PS2. M G-quadruplex DNA over helicase.

HCV NS3 helicase = biological target: T2, HCV NS3 helicase (Hepatitis C virus genotype 1a, UniProt P27958); test: G-quadruplex-based luminescent HCV NS3 helicase activity assay; format: biochemical; details: for inhibitory activity towards HCV NS3 helicase: 10 μM inhibitor, 0.8 μM helicase
T2 construct: upon the addition of 0.8 μM HCV NS3 helicase; purchased Prospec Inc. (Ness-Ziona, Israel)
Experimental: The random-coil oligonucleotides ON1 (100 μM) and ON2 (100 μM) were incubated in Tris buffer (20 mM, pH 7.0). The solution was heated at a temperature of 72-98° C., in particular 95° C., for at least 30 seconds in particular 10 min, cooled to room temperature at 0.1° C./s, and further incubated at room temperature for 1 hour to ensure formation of the duplex substrate. The annealed product was stored at −20° C. before use. For assaying enzyme activity, 50 μL of Tris buffered solution (5 mM Tris-HCl, 5 mM NaCl, 1 mM MgCl2, 1 mM ATP, 0.1 mM DTT, pH 7.9) with the indicated concentrations of helicase or S1, Endo, DpnI, ExoI, EcoRI, RNase, DNase, and SSB were added to a solution containing the duplex substrate (0.25 μM). The mixture was heated to 37° C. for at least 30 minutes, e.g. 2 hours, to allow the indicated enzymes-catalyzed unwinding of the duplex substrate to take place. The duplex unwinding reaction was quenched by the addition of EDTA at a final concentration of 20 mM, and the mixture was subsequently diluted using Tris buffer (20 mM Tris, 20 mM KCl, 150 mM NH4Ac, pH 7.2) to a final volume of 500 μL. […] Emission spectra were recorded in the 500-720 nm range using an excitation wavelength of 360 nm.
For the detection of helicase activity in cell extract, 50 μL of Tris buffered solution (5 mM Tris-HCl, 5 mM NaCl, 1 mM MgCl2, 1 mM ATP, 0.1 mM DTT, pH 7.9) and the indicated concentrations of helicase were added to a solution containing the duplex substrate (0.25 μM) and cell extract. The mixture was heated to 37° C. for at least 30 minutes, e.g. 2 hours, to allow the helicase-catalyzed unwinding of the duplex substrate to take place. The duplex unwinding reaction was quenched by the addition of EDTA at a final concentration of 20 mM, and the mixture was subsequently diluted using Tris buffer (20 mM Tris, 20 mM KCl, 150 mM NH4Ac, pH 7.2) to a final volume of 500 μL. Finally, 1 μM of complex 9 was added to the mixture. Emission spectra were recorded in the 500-720 nm range using an excitation wavelength of 360 nm.

T2 sequence (P27958 1027-1657): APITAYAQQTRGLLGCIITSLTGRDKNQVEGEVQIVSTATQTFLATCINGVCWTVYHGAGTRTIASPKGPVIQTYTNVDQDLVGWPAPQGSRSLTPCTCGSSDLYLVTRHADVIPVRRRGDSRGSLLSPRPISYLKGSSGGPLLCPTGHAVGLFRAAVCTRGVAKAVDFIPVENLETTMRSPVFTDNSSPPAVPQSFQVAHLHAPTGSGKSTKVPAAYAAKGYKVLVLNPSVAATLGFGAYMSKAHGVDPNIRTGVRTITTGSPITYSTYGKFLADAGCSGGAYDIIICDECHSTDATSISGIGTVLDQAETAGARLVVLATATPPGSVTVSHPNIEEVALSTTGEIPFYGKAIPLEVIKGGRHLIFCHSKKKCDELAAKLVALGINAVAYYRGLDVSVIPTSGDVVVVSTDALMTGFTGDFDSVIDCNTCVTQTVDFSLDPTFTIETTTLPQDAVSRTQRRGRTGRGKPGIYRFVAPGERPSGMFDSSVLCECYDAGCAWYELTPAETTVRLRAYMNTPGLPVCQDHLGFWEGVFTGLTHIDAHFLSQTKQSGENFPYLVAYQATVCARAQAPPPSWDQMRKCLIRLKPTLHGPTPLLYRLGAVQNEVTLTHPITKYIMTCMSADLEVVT
T1 sequence (P27958 1027-1657): as above

Molecule | Lifetime [1] [μs] | λem [1] [nm] | Quantum yield [1] | other results
Clc1cc[n+]2c3c1ccc1c(Cl)cc[n+](c13)[Ir-3]213([c]2ccccc2-c2ccc4ccccc4[n+]21)[c]1ccccc1-c1ccc2ccccc2[n+]13.F[P-](F)(F)(F)(F)F [Complex 10] | 2.89 | 590 | 0.086 | 
Clc1cc2cccnc2c2ncccc12.F[P-](F)(F)(F)(F)F.[Ir+3].[c-]1ccccc1-c1ccccn1.[c-]1ccccc1-c1ccccn1 [Complex 17] | 2.87 | 608 | 0.078 | 
F[P-](F)(F)(F)(F)F.[Ir+3].[c-]1ccccc1-c1ncco1.[c-]1ccccc1-c1ncco1.c1ccc(-c2ccccn2)nc1 [Complex 6] | 0.28 | 580 | 0.089 | selectivity of luminescence response for G-quadruplex DNA over dsDNA and ssDNA (PS2.M G-quadruplex DNA): non-selective for G-quadruplex DNA
Cc1ccc2ccc3ccc(C)[n+]4c3c2[n+]1[Ir-3]412([c]3ccccc3-c3ccc4ccccc4[n+]31)[c]1ccccc1-c1ccc3ccccc3[n+]12.F[P-](F)(F)(F)(F)F [Complex 11] | 1.96 | 570 | 0.087 | 
Clc1cc2cccnc2c2ncccc12.F[P-](F)(F)(F)(F)F.[Ir+3].[c-]1ccccc1-c1ccc2ccccc2n1.[c-]1ccccc1-c1ccc2ccccc2n1 [Complex 7] | 1.34 | 571 | 0.056 | luminescence enhancement in the presence of helicase only (helicase): not showing any luminescence enhancement towards helicase; selectivity of luminescence response for G-quadruplex DNA over dsDNA and ssDNA (PS2.M G-quadruplex DNA): selective response for G-quadruplex DNA
O=C(O)c1cn(C2CC2)c2cc(N3CCNCC3)c(F)cc2c1=O [ciprofloxacin, reference compound] |  |  |  | decrease of luminescence signal of the system (HCV NS3 helicase; 10 μM of ciprofloxacin): about 40%; luminescence signal of the system in the presence of inhibitor (HCV NS3 helicase; ciprofloxacin 0, 1, 2.5, 5, 10, 20 μM): diminished in the presence of ciprofloxacin in a dose-dependent manner
Cc1ccc(C(=O)Nc2ccc(S(=O)(=O)O)c3cc(S(=O)(=O)O)cc(S(=O)(=O)O)c23)cc1NC(=O)c1cccc(NC(=O)Nc2cccc(C(=O)Nc3cc(C(=O)Nc4ccc(S(=O)(=O)O)c5cc(S(=O)(=O)O)cc(S(=O)(=O)O)c45)ccc3C)c2)c1 [suramin, reference compound] |  |  |  | inhibitory activity towards HCV NS3 helicase (HCV NS3 helicase): displayed inhibitory activity
Cc1cc(-c2ccccc2)c2ccc3c(-c4ccccc4)cc(C)[n+]4c3c2[n+]1[Ir-3]412([c]3ccccc3-c3ccc4ccccc4[n+]31)[c]1ccccc1-c1ccc3ccccc3[n+]12.F[P-](F)(F)(F)(F)F [Complex 12] | 1.84 | 575 | 0.063 | 
F[P-](F)(F)(F)(F)F.c1ccc(-c2cc[n+]3c(c2)-c2cc(-c4ccccc4)cc[n+]2[Ir-3]324([c]3ccccc3-c3ccc5ccccc5[n+]32)[c]2ccccc2-c2ccc3ccccc3[n+]24)cc1 [Complex 14] | 4.586 | 560 | 0.15 | 
F[P-](F)(F)(F)(F)F.c1cc[c]2c(c1)-c1ccc3ccccc3[n+]1[Ir-3]213([c]2ccccc2-c2ccc4ccccc4[n+]21)[n+]1cccc2c4nccnc4c4ccc[n+]3c4c21 [Complex 13] | 4.61 | 568 | 0.067 | 
Cc1cccc2[n+]1[Ir-3]13([c]4ccccc4-2)([c]2ccccc2-c2cccc(C)[n+]21)[n+]1ccc(-c2ccccc2)c2ccc4c(-c5ccccc5)cc[n+]3c4c21.F[P-](F)(F)(F)(F)F [Complex 5] | 1.23 | 590 | 0.12 | selectivity of luminescence response for G-quadruplex DNA over dsDNA and ssDNA (PS2.M G-quadruplex DNA): non-selective for G-quadruplex DNA
F[P-](F)(F)(F)(F)F.c1ccc(-c2ccc3ccc4ccc(-c5ccccc5)[n+]5c4c3[n+]2[Ir-3]523([c]4ccccc4-n4ccc[n+]42)[c]2ccccc2-n2ccc[n+]23)cc1 [Complex 1] | 3.29 | 629 | 0.13 | luminescence enhancement in the presence of helicase only (helicase): enhanced in the presence of helicase only
Clc1cc2ccc[n+]3c2c2c1ccc[n+]2[Ir-3]312([c]3ccccc3-c3[nH]c4ccccc4[n+]31)[c]1ccccc1-c1[nH]c3ccccc3[n+]12.F[P-](F)(F)(F)(F)F [Complex 15] | 2.71 | 620 | 0.092 | 
Brc1c(Br)c(Br)c2n[nH]nc2c1Br [TBBT, reference compound] |  |  |  | inhibitory activity towards HCV NS3 helicase (HCV NS3 helicase): displayed inhibitory activity
Cc1c(C)c2cccnc2c2ncccc12.Cc1c[c-]c(-c2ccccn2)cc1.Cc1c[c-]c(-c2ccccn2)cc1.F[P-](F)(F)(F)(F)F.[Ir+3] [Complex 2] | 0.74 | 577 | 0.057 | luminescence enhancement in the presence of helicase only (helicase): enhanced in the presence of helicase only
single-stranded DNA binding protein: single-stranded DNA binding protein (SSB) purchased from New England Biolabs |  |  |  | response of the complex 9+G-quadruplex DNA system to other enzymes or proteins (emission intensity) (HCV NS3 helicase; selectivity test, enzyme in place of helicase): relatively low emission enhancement
